The values that follow come from ChEMBL document CHEMBL1149511, “Tri-substituted triazoles as potent non-nucleoside inhibitors of the HIV-1 reverse transcriptase” (Bioorg Med Chem Lett, 2006).

Common to all, as to format: functional, cell-based
The subject of experiment [1] is HeLa. Kind of experiment: Antiviral activity against HIV1 K103N-Y181C mutant in HeLa-JC53 cells.
The subject of experiment [2] is HeLa. The experiment can be described thus: Antiviral activity against wild type HIV1 in HeLa-JC53 cells. The following applies: Homo sapiens.
Experiment [3] has as its system HeLa. The experiment can be described thus: Antiviral activity against HIV1 Y188L mutant in HeLa-JC53 cells.

For the compound `Cc1ccc(-n2c(SCC(=O)Nc3ccc(C)cc3Br)nnc2C2CC2)cc1`, the concentration giving a half-maximal response (EC50) in the experiment with HeLa [1] is above 10000 nM.
Turning to `Cc1ccc2c(C)cccc2c1-n1c(C)nnc1SCC(=O)Nc1ccccc1Br`, the EC50 in the experiment on HeLa [2] was determined as 0.3 nM; with HeLa [3] it was 330 nM.
Take `Cc1ccc2c(C)cc(C)c(-n3c(C)nnc3SCC(=O)Nc3ccc(S(N)(=O)=O)cc3Cl)c2n1`: the figures for the EC50 in the experiment on HeLa [2] and in the experiment on HeLa [3] were 0.7 nM and 11 nM, respectively.
Turning to `Cc1ccc(NC(=O)CSc2nnc(C)n2-c2c(C)cc(C)c3ccccc23)c(Cl)c1`, the values for the EC50 in the experiment with HeLa [2] and in the experiment on HeLa [3] were 1 nM and 90 nM, respectively.
As for `Cc1ccc(-n2c(C)nnc2SCC(=O)Nc2ccc(C)cc2Br)cc1`, the values for the EC50 in the experiment with HeLa [2] and with HeLa [1] were 0.4 nM and 100 nM, respectively.
Turning to `Cc1ccc(-n2c(SCC(=O)Nc3ccc(C)cc3Br)nnc2C(F)(F)F)cc1`, the EC50 in the experiment on HeLa [2] is 0.5 nM; in the experiment on HeLa [1], 1100 nM.
For `Cc1ccc(-n2c(C)nnc2SCC(=O)Nc2ccc(C)cc2Cl)cc1`, the EC50 in the experiment with HeLa [2] stood at 0.9 nM; in the experiment with HeLa [1], 170 nM.
In the same order, the values of `Cc1ccc(-n2c(C)nnc2SCC(=O)Nc2cccc(Cl)c2Cl)cc1` are 0.1 nM and 110 nM.
With `Cc1ccc2c(C)ccc(-n3c(SCC(=O)Nc4ccc(S(N)(=O)=O)cc4Cl)nnc3C(F)(F)F)c2c1`, the EC50 with HeLa [2] is 6 nM; with HeLa [3], 35 nM.
As to `COCc1nnc(SCC(=O)Nc2ccc(C)cc2Br)n1-c1ccc(C)cc1`, in the experiment on HeLa [1], the EC50 was above 10000 nM.
For the compound `Cc1nnc(SCC(=O)Nc2ccccc2Br)n1-c1ccc(N(C)C)c2ccccc12`, the EC50 came to 0.4 nM in the experiment with HeLa [2] and 240 nM in the experiment on HeLa [3].
`Cc1ccc(NC(=O)CSc2nnc(C)n2-c2cc(C)c(C)c3ccccc23)c(Cl)c1`: the half-maximal effective concentration (EC50) was determined as 1 nM with HeLa [2] and 160 nM in the experiment on HeLa [3].
In the same order, the values of `Cc1cc2c(C)ccc(-n3c(C)nnc3SCC(=O)Nc3ccccc3Br)c2cc1C` are 1 nM and 110 nM.
On to `Cc1ccc2ccc(C)c(-n3c(SCC(=O)Nc4ccc(S(N)(=O)=O)cc4Cl)nnc3C(F)(F)F)c2c1`, for which the EC50 was found to be 3 nM with HeLa [2] and 26 nM in the experiment on HeLa [3].
On to `Cc1ccc(-n2c(C)nnc2SCC(=O)Nc2cccc(C)c2C)cc1`, for which the concentration giving a half-maximal response (EC50) in the experiment on HeLa [2] is 60 nM; in the experiment with HeLa [1] it was above 10000 nM.
With `Cc1ccc(NC(=O)CSc2nnc(C)n2-c2cccc(C(F)(F)F)c2)c(Cl)c1`, in the experiment with HeLa [2], the EC50 is above 600 nM.
Take `Cc1nnc(SCC(=O)Nc2ccc(S(N)(=O)=O)cc2Cl)n1-c1ccc(Cl)c2ccccc12`: the EC50 came to 1 nM with HeLa [2] and 68 nM in the experiment on HeLa [3].
Regarding `CNCc1nnc(SCC(=O)Nc2ccc(C)cc2Br)n1-c1ccc(C)cc1`, in the experiment with HeLa [1], the EC50 was above 10000 nM.
As for `Cc1ccc2cccc(-n3c(C)nnc3SCC(=O)Nc3ccc(S(N)(=O)=O)cc3Cl)c2n1`, the EC50 with HeLa [2] was 1 nM; in the experiment with HeLa [3], 390 nM.
Consider `CCc1nnc(SCC(=O)Nc2ccc(C)cc2Br)n1-c1ccc(C)cc1`, for which the EC50 in the experiment on HeLa [2] stood at 0.1 nM; with HeLa [1], 2500 nM.
Turning to `Cc1nnc(SCC(=O)Nc2ccccc2Br)n1-c1cccc2ccccc12`, the results for the EC50 in the experiment on HeLa [2] and in the experiment on HeLa [3] were 2 nM and 720 nM, respectively.
Consider `Cc1ccc(-n2c(C)nnc2SCC(=O)Nc2ccccc2Br)cc1`, for which the EC50 with HeLa [2] is 0.4 nM; in the experiment on HeLa [1], 76 nM.
`Cc1cccc(-n2c(C)nnc2SCC(=O)Nc2ccc(C)cc2Cl)c1`: the EC50 in the experiment on HeLa [2] was 110 nM.
In the case of `Cc1ccc(-n2c(C)nnc2SCC(=O)Nc2ccc(S(N)(=O)=O)cc2Cl)c2ccccc12`, the values for the EC50 in the experiment on HeLa [2] and with HeLa [3] were 0.2 nM and 20 nM, respectively.
In the same order, the values of `Cc1ccc(NC(=O)CSc2nnc(C)n2-c2cccc3cccnc23)c(Cl)c1` are 8 nM and 5700 nM.
Turning to `Cc1nnc(SCC(=O)Nc2ccccc2Br)n1-c1cccc2cccnc12`, the results for the EC50 in the experiment with HeLa [2] and in the experiment on HeLa [3] were 7 nM and 4200 nM, respectively.
In the same order, the values of `NS(=O)(=O)c1ccc(NC(=O)CSc2nnc(C(F)(F)F)n2-c2cccc3cccnc23)c(Cl)c1` are 2 nM and 180 nM.
For the compound `Cc1ccc2c(-n3c(C)nnc3SCC(=O)Nc3ccccc3Br)ccc(C)c2c1`, the EC50 in the experiment on HeLa [2] was found to be 0.5 nM; with HeLa [3], 150 nM.
In the case of `CSc1ccccc1NC(=O)CSc1nnc(C)n1-c1ccc(C)cc1`, the EC50 in the experiment with HeLa [2] was 0.6 nM; in the experiment with HeLa [1], 120 nM.
With `Cc1ccc2cccc(-n3c(SCC(=O)Nc4ccc(S(N)(=O)=O)cc4Cl)nnc3C(F)(F)F)c2n1`, the EC50 in the experiment on HeLa [2] is 0.6 nM; with HeLa [3], 22 nM.
In the experiment on HeLa [2], `Cc1ccc(NC(=O)CSc2nnc(C)n2-c2cccc(Cl)c2)c(Cl)c1` registered an EC50 of 260 nM.
As to `Cc1ccc(-n2c(C)nnc2SCC(=O)Nc2ccc(C#N)cc2Cl)cc1`, the EC50 in the experiment with HeLa [2] is 3 nM; with HeLa [1] it was 900 nM.
With `Cc1ccc(-n2c(CO)nnc2SCC(=O)Nc2ccc(C)cc2Br)cc1`, in the experiment on HeLa [1], the EC50 was above 10000 nM.
For `COc1ccc(-n2c(C)nnc2SCC(=O)Nc2ccc(C)cc2Cl)c2ccccc12`, the values for the half-maximal effective concentration (EC50) in the experiment with HeLa [2] and in the experiment on HeLa [3] were 1 nM and 240 nM, respectively.
Regarding `Cc1ccc(-n2c(C)nnc2SCC(=O)Nc2cc(Cl)ccc2Cl)cc1`, in the experiment with HeLa [2], the half-maximal effective concentration (EC50) was determined as 100 nM.
Regarding `Cc1ccc2cccc(C)c2c1-n1c(C)nnc1SCC(=O)Nc1ccccc1Br`, the EC50 with HeLa [2] was 1 nM; in the experiment on HeLa [3], 480 nM.
Turning to `Cc1cc2cccc(C)c2c(-n2c(C)nnc2SCC(=O)Nc2ccccc2Br)c1C`, the EC50 in the experiment with HeLa [2] worked out at 3 nM; with HeLa [3], 200 nM.
With `Cc1ccc(-n2c(C)nnc2SCC(=O)Nc2ccc(C(C)C)cc2Br)cc1`, the 50% effective concentration (EC50) with HeLa [2] is 140 nM; with HeLa [1], above 10000 nM.
In the same order, the values of `Cc1ccc(-n2c(C)nnc2SCC(=O)Nc2ccc(C)cc2Cl)c(C)c1` are 0.1 nM and 60 nM.
For `COc1ccc(-n2c(C)nnc2SCC(=O)Nc2ccc(S(N)(=O)=O)cc2Cl)c2ccccc12`, the EC50 came out at 0.7 nM in the experiment on HeLa [2] and 110 nM in the experiment on HeLa [3].
In the same order, the values of `NS(=O)(=O)c1ccc(NC(=O)CSc2nnc(C(F)(F)F)n2-c2ccc(Cl)c3ccccc23)c(Cl)c1` are 4 nM and 41 nM.
In the same order, the values of `Cc1ccc2c(C)ccc(-n3c(C)nnc3SCC(=O)Nc3ccccc3Br)c2c1` are 0.3 nM and 12 nM.
In the same order, the values of `COc1ccc(-n2c(SCC(=O)Nc3ccc(S(N)(=O)=O)cc3Cl)nnc2C(F)(F)F)c2ccccc12` are 0.4 nM and 14 nM.
As for `Cc1nnc(SCC(=O)Nc2ccc(S(N)(=O)=O)cc2Cl)n1-c1cccc2cccnc12`, the EC50 in the experiment on HeLa [2] is 4 nM; with HeLa [3], 2400 nM.
Regarding `Cc1ccc(-n2c(C)nnc2SCC(=O)Nc2ccccc2C(F)(F)F)cc1`, the EC50 in the experiment with HeLa [2] was 7 nM; in the experiment with HeLa [1] it was above 10000 nM.
As to `COc1cc(-n2c(C)nnc2SCC(=O)Nc2ccc(S(N)(=O)=O)cc2Cl)c2ncccc2c1`, the EC50 worked out at 0.8 nM in the experiment with HeLa [2] and 370 nM in the experiment with HeLa [3].
As to `Cc1ccc(-n2c(C)nnc2SCC(=O)Nc2ccc(Cl)cc2Cl)cc1`, the EC50 with HeLa [2] was 5 nM.
With `Cc1ccc(-n2c(C)nnc2SCC(=O)Nc2ccccc2-c2ccccc2)cc1`, the EC50 with HeLa [2] and in the experiment with HeLa [1] was above 10000 nM in each case.
Regarding `Cc1ccc(-n2c(SCC(=O)Nc3ccc(S(N)(=O)=O)cc3Cl)nnc2C(F)(F)F)c2ccccc12`, the EC50 in the experiment on HeLa [2] came out at 0.4 nM; with HeLa [3], 25 nM.
Turning to `Cc1ccc(NC(=O)CSc2nnc(C)n2-c2ccccc2Cl)c(Cl)c1`, the values for the EC50 in the experiment on HeLa [2] and in the experiment with HeLa [1] were 8 nM and 100 nM, respectively.
Consider `Cc1nnc(SCC(=O)Nc2ccc(S(N)(=O)=O)cc2Cl)n1-c1cc(Br)cc2cccnc12`, for which the EC50 in the experiment with HeLa [2] is 0.8 nM; in the experiment on HeLa [3], 190 nM.
Regarding `Cc1ccc(-n2c(C)nnc2SCC(=O)Nc2ccc(OC(F)(F)F)cc2Br)cc1`, the EC50 in the experiment on HeLa [2] is 58 nM; with HeLa [1], above 10000 nM.
The corresponding values for `CCc1ccc(-n2c(C)nnc2SCC(=O)Nc2ccc(C)cc2Cl)cc1` are 0.2 nM and 60 nM.
In the same order, the values of `Cc1ccc(NC(=O)CSc2nnc(C)n2-c2ccc(C(F)(F)F)cc2)c(Cl)c1` are 19 nM and 230 nM.
The corresponding values for `Cc1ccc(-n2c(C)nnc2SCC(=O)Nc2ccccc2I)cc1` are 0.5 nM and 220 nM.
Regarding `Cc1ccc(-n2c(C)nnc2SCC(=O)Nc2ccccc2Cl)cc1`, the values for the EC50 with HeLa [2] and in the experiment on HeLa [1] were 0.7 nM and 150 nM, respectively.
In the same order, the values of `Cc1ccc(-n2c(C)nnc2SCC(=O)Nc2cccc(Cl)c2)cc1` are above 10000 nM and above 10000 nM.
In the same order, the values of `Cc1ccc(NC(=O)CSc2nnc(C)n2-c2ccc(F)cc2)c(Cl)c1` are 2300 nM and above 10000 nM.
In the same order, the values of `Cc1ccc(-n2c(C)nnc2SCC(=O)Nc2ccc(Cl)cc2)cc1` are 400 nM and above 10000 nM.
In turn, `Cc1ccc(-n2c(SCC(=O)Nc3ccc(C)cc3Br)nnc2C(C)C)cc1` registered an EC50 in the experiment with HeLa [1] above 10000 nM.
As to `Cc1ccc(-n2c(C)nnc2SCC(=O)Nc2ccc(Oc3ccccc3)cc2)cc1`, the EC50 in the experiment with HeLa [2] is 1100 nM; in the experiment on HeLa [1], above 10000 nM.
Regarding `Cc1ccc2c(C)ccc(-n3c(C)nnc3SCC(=O)Nc3ccc(S(N)(=O)=O)cc3Cl)c2n1`, the results for the 50% effective concentration (EC50) in the experiment with HeLa [2] and in the experiment on HeLa [3] were 0.6 nM and 15 nM, respectively.
The compound `CSCc1nnc(SCC(=O)Nc2ccc(C)cc2Br)n1-c1ccc(C)cc1` returned an EC50 with HeLa [1] above 10000 nM.
Regarding `Cc1ccc(-n2cnnc2SCC(=O)Nc2ccc(C)cc2Br)cc1`, the values for the EC50 with HeLa [2] and with HeLa [1] were 70 nM and above 10000 nM, respectively.
Take `Cc1ccc2cc(Cl)cc(-n3c(C)nnc3SCC(=O)Nc3ccc(S(N)(=O)=O)cc3Cl)c2n1`: the EC50 in the experiment on HeLa [2] worked out at 2 nM; in the experiment on HeLa [3], 100 nM.
In the experiment on HeLa [1], `Cc1ccc(-n2c(O)nnc2SCC(=O)Nc2ccc(C)cc2Br)cc1` registered a 50% effective concentration (EC50) above 10000 nM.
Regarding `NS(=O)(=O)c1ccc(NC(=O)CSc2nnc(C(F)(F)F)n2-c2cccc3ccccc23)c(Cl)c1`, the EC50 worked out at 0.5 nM in the experiment on HeLa [2] and 49 nM with HeLa [3].
The corresponding values for `Cc1cc2c(C)cccc2c(-n2c(C)nnc2SCC(=O)Nc2ccccc2Br)c1C` are 0.8 nM and 160 nM.
As for `Cc1nnc(SCC(=O)Nc2ccc(S(N)(=O)=O)cc2Cl)n1-c1ccc(N(C)C)c2ccccc12`, the EC50 came out at 0.5 nM in the experiment on HeLa [2] and 88 nM with HeLa [3].
The corresponding values for `Cc1nnc(SCC(=O)Nc2ccc(S(N)(=O)=O)cc2Cl)n1-c1cccc2ccccc12` are 0.5 nM and 190 nM.
